This note sets out measurements from patent US5760230A, “4, 4'-bridged bis-2, 4-diaminoquinazolines” (Bayer Aktiengesellschaft, priority 1996, dated 1998).

pKi: −log10 of the molar value.

Assay [1] concerns potassium channels (PC12 cells). The experiment in a line: Non-radioactive Rb^+ efflux assay for the identification of potassium channel modulators in PC12 cells. The following applies: Rattus norvegicus, PC-12, 10 min, test concentration of 10 μM, 50 mM KCl stimulation. The format is cell-based. As to the method: 2) Non-radioactive Rb^+ efflux assay for the identification of potassium channel modulators
The potassium in PC12 cells is exchanged with rubidium, which is not present in the cells. This exchange is performed by incubating the cells over a period of 4 h in a physiological buffer containing 5.4 mM RbCl without KCl. This rubidium subsequently serves as a tracer for potassium.
The cells laden with Rb^+ in this way are washed three times and then stimulated by depolarization with 50 mM KCl to open potassium channels (10 min), causing Rb^+ to flow out of the cells into the supernatant according to the concentration gradient.
The rubidium contents in the cell supernatant and in the residual cells after they have been lysed with 1% Triton X-100 are then determined by means of atomic absorption spectroscopy. The relative proportion of rubidium in the cell supernatant (=Rb^+ efflux) is used as a measure of the potassium channel activity.
The effect of substances on the channel activity is measured by co-incubating, the test substance over the ten-minute stimulation period and determining its effect on the Rb^+ efflux in the manner described above.

Assay [2] addresses apamine binding sites (bovine cerebral membrane, hippocampus). The experiment in a line: Binding of ^125 I-apamine to bovine cerebral membrane. The following applies: 30 pM ^125 I-apamine, calf hippocampus membranes, pH 7.4, 60 min on ice. As to the method:
The compounds according to the invention are ligands for apamine-sensitive potassium channels. This can be shown by studying the affinity for apamine binding sites, e.g. in bovine cerebral membranes.
1) Binding of ^125 I-apamine to bovine cerebral membrane
Calf brains were obtained from the local abattoir. The hippocampus was prepared on ice and a membrane suspension was made up by homogenization twice in buffer (100 mM Tris-HCl, KCl 5 mM, pH 7.4) and centrifugation at 43,000×g. In a total volume of 500 μl, the incubation mixture contained 200 μg of membrane protein, 30 pM ^125 I-apamine and test substances in the concentration range 1×10^-9 to 1×10^-4 M. The non-specific binding of ^125 I-apamine was determined in the presence of 1×10^-7 M unlabelled apamine.
After preincubation for 30 min at room temperature (test substances and membrane homogenate), the samples were placed on ice for 10 min before the radioligand was added. The main incubation time was 60 min on ice. When the reaction time had elapsed, an excess of ice-cooled incubation buffer was added to each sample and the mixture was filtered with suction through cellulose acetate/nitrate membrane filters. The amount of bound ^125 I-apamine was measured with a gamma counter.

In general, inhibition refers to the percentage by which the read-out fell short of the control. As for `CCN(CC)c1nc(NCCCNc2nc(N(CC)CC)nc3ccccc23)c2ccccc2n1` [Example 3], the inhibition at 10 µM in assay [1] was 81%.

By pKi is commonly meant −log10 of the Ki, conventionally taken in molar units. Low readings indicate a large Ki, high ones a small Ki. In turn, `CCN(CC)c1nc(NCCCCCNc2nc(N(CC)CC)nc3ccccc23)c2ccccc2n1` [Example 2] gave a pKi in assay [2] of 8.10.

Compound `CCN(CC)c1nc(NCC2CCCC(CNc3nc(N(CC)CC)nc4ccccc34)C2)c2ccccc2n1` (mixture of isomers) [Example 1, 1,3-Bis-[(2-diethylamino-4-quinazolyl)-aminomethyl]-cyclohexane (cis/trans isomeric mixture)] had a pKi in assay [2] of 6.80. Besides, the inhibition at 10 µM in assay [1] came to 80%.
